Experimental findings from patent US20090118332A1, “Therapeutic Agents - 551” (AstraZeneca AB, priority 2006, published 2009) are described below.

The experiment has as its target T1, human Fatty Acid Synthase (Homo sapiens, UniProt P49327).
T1 construct: made in house
Description: Human FAS enzyme assay (decrease in NADPH fluorescence). Format: biochemical. The note with it: for inhibition at 100 µM: % inhibition at a concentration of 100 μmolar. In a few lines: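 In-house human FAS was preincubated with compound and NADPH for 15 min at room temperature in 0.1 M Tris pH 7.5 with EDTA, glutathione and BSA. Malonyl CoA and acetyl CoA (500 μM and 150 μM in the added mix) were then added for 60 min. IC50 came from time-zero-subtracted NADPH fluorescence (340/460 nm).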

T1 sequence (P49327 whole entry): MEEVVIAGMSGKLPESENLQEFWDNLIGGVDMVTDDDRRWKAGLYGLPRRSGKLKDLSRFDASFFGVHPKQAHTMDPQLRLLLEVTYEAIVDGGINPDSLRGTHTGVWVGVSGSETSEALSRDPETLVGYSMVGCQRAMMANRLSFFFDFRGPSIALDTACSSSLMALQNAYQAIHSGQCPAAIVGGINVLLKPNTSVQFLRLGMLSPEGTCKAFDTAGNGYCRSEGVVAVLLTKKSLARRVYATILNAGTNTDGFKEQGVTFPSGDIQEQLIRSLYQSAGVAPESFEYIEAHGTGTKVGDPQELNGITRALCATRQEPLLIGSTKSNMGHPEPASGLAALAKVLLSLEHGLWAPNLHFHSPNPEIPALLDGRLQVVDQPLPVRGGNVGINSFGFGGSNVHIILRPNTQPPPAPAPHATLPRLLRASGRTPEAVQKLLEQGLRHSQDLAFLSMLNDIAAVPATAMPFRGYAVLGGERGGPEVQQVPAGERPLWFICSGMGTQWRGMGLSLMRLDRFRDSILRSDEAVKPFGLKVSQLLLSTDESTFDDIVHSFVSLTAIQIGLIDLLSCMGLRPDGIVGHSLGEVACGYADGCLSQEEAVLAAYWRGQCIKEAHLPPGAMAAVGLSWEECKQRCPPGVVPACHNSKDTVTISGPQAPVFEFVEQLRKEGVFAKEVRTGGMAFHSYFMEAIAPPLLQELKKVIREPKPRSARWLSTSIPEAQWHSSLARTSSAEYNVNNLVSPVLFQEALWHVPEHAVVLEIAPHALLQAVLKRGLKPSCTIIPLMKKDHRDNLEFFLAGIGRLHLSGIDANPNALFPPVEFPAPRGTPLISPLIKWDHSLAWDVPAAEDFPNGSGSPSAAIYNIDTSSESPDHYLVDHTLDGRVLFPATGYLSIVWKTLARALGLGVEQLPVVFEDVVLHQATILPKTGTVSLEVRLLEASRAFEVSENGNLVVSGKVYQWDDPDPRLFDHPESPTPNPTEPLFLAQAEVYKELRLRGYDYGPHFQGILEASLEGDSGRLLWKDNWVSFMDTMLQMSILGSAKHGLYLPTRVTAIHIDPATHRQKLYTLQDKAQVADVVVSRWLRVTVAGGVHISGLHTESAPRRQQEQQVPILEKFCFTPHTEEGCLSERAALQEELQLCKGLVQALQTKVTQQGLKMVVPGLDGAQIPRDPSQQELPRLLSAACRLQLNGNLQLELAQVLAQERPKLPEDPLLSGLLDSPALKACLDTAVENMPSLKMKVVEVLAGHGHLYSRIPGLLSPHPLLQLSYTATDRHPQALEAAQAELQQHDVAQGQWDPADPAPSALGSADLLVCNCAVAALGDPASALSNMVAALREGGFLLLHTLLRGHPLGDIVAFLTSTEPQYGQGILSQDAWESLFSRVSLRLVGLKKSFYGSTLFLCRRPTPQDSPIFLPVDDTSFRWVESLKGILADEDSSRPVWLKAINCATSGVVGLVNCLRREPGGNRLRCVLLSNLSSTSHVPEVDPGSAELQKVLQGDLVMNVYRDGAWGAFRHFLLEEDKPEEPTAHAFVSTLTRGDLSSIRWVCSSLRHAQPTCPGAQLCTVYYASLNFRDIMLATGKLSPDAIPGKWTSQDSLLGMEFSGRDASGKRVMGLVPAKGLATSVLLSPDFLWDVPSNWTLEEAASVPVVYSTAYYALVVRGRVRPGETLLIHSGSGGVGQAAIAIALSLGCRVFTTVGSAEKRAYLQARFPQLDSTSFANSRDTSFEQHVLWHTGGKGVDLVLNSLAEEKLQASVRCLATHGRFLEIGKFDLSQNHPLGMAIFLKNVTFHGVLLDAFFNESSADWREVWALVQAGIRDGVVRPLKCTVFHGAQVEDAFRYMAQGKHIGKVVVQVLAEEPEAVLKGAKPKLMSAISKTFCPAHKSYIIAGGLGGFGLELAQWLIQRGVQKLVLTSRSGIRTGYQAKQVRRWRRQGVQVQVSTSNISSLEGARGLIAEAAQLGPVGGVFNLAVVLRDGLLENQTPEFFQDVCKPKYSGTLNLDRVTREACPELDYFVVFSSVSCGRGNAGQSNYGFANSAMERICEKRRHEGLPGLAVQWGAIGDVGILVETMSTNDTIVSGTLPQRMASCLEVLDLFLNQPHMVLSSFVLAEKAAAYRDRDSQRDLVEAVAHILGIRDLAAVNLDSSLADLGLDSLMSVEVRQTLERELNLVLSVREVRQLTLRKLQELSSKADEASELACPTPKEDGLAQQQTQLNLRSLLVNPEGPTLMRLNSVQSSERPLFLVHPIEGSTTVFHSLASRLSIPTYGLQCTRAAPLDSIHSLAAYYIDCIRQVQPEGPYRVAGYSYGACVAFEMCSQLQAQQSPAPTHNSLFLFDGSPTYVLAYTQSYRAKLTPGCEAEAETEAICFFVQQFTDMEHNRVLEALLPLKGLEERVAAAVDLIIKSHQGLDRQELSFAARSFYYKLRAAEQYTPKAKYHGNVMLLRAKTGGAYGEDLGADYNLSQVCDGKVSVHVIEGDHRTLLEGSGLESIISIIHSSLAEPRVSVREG

For the compound `Cc1ccc(C(=O)N2CCC(c3ccc(C#N)cc3)CC2)cc1NC(=O)NCC(=O)O` [Example 408, 2-[[5-[4-(4-cyanophenyl)piperidine-1-carbonyl]-2-methylphenyl]carbamoylamino]acetic acid], the inhibition at 100 µM stood at 95.7%.
On to `COc1cccc(CCNC(=O)Nc2cc(C(=O)N3CCC(c4ccc(C#N)cc4)CC3)ccc2C)c1` [Example 65, 1-[5-[4-(4-cyanophenyl)piperidine-1-carbonyl]-2-methyl-phenyl]-3-[2-(3-methoxyphenyl)ethyl]urea], for which the inhibition at 100 µM came to 99.8%.
The same measure, in the same setting: to `COCCCCNC(=O)Nc1cc(C(=O)N2CCC(c3ccc(C#N)cc3)CC2)ccc1C` [Example 252, 1-[5-[4-(4-cyanophenyl)piperidine-1-carbonyl]-2-methyl-phenyl]-3-(4-methoxybutyl)urea] belongs 99.4%.
`Cc1ccc(C(=O)N2CCC(c3ccc(C#N)cc3)CC2)cc1NC(=O)NCCN1CCNC1=O` [Example 135, 1-[5-[4-(4-cyanophenyl)piperidine-1-carbonyl]-2-methyl-phenyl]-3-[2-(2-oxoimidazolidin-1-yl)ethyl]urea]: the inhibition at 100 µM came out at 81.1%.
On the same count and under the same terms, to `COCCNC(=O)Nc1cc(C(=O)N2CCC(c3ccc(C#N)cc3)CC2)ccc1C` [Example 152, 1-[5-[4-(4-cyanophenyl)piperidine-1-carbonyl]-2-methyl-phenyl]-3-(2-methoxyethyl)urea] belongs 95.1%; to `Cc1ccc(C(=O)N2CCC(c3ccc(C#N)cc3)CC2)cc1NC(=O)NCc1cnccn1` [Example 293, 1-[5-[4-(4-cyanophenyl)piperidine-1-carbonyl]-2-methyl-phenyl]-3-(pyrazin-2-ylmethyl)urea], 92.5%; to `Cc1ccc(C(=O)N2CCC(c3ccc(C#N)cc3)CC2)cc1NC(=O)N1CC(NS(C)(=O)=O)C1` [Example 313, N-[5-[4-(4-cyanophenyl)piperidine-1-carbonyl]-2-methyl-phenyl]-3-methanesulfonamido-azetidine-1-carboxamide], 90.5%.
In the case of `Cc1ccc(C(=O)N2CCC(c3ccc(C#N)cc3)CC2)cc1NC(=O)NCC(O)COc1ccccc1Cl` (stereo not drawn) [Example 196, 3-[3-(2-chlorophenoxy)-2-hydroxy-propyl]-1-[5-[4-(4-cyanophenyl)piperidine-1-carbonyl]-2-methyl-phenyl]urea], the inhibition at 100 µM turned out to be 91.7%.
Same read-out and setting: to `CC(=O)NC(C)(C)CNC(=O)Nc1cc(C(=O)N2CCC(c3ccc(C#N)cc3)CC2)ccc1C` [Example 261, N-[1-[[5-[4-(4-cyanophenyl)piperidine-1-carbonyl]-2-methyl-phenyl]carbamoylamino]-2-methyl-propan-2-yl]acetamide] belongs 85.9%.
Still for that read-out and setting: in the case of `Cc1ccc(C(=O)N2CCC(c3ccc(C#N)cc3)CC2)cc1NC(=O)N(C)C1CCOCC1` [Example 396, 3-[5-[4-(4-cyanophenyl)piperidine-1-carbonyl]-2-methylphenyl]-1-methyl-1-(oxan-4-yl)urea] it was 62.9%.
For the compound `Cc1ccc(C(=O)N2CCC(c3ccc(C#N)cc3)CC2)cc1NC(=O)NCC(O)C(F)(F)F` (racemic) [Example 195, (RS)-1-[5-[4-(4-cyanophenyl)piperidine-1-carbonyl]-2-methyl-phenyl]-3-(3,3,3-trifluoro-2-hydroxy-propyl)urea], the inhibition at 100 µM worked out at 88.6%.
Regarding `Cc1ccc(C(=O)N2CCC(c3ccc(C#N)cc3)CC2)cc1NC(=O)N(C1CC1)C1CCS(=O)(=O)C1` (stereo not drawn) [3-[5-[4-(4-cyanophenyl)piperidine-1-carbonyl]-2-methylphenyl]-1-cyclopropyl-1-(1,1-dioxothiolan-3-yl)urea], under “FAS enzyme assay, IC50 from fitted sigmoid curves”, the “IC50, inhibition of human Fatty Acid Synthase” value was “do not have IC50s in the range of about 0.001 μM to about 30 μM”.
With `Cc1ccc(C(=O)N2CCC(c3ccc(C#N)cc3)CC2)cc1NC(=O)NC1CCCN(S(C)(=O)=O)C1` (stereo not drawn) [Example 296, 1-[5-[4-(4-cyanophenyl)piperidine-1-carbonyl]-2-methyl-phenyl]-3-(1-methylsulfonyl-3-piperidyl)urea], the inhibition at 100 µM amounted to 103%.
The same measure, in the same setting: in the case of `Cc1ccc(C(=O)N2CCC(c3ccc(C(F)(F)F)cc3)CC2)cc1NC(=O)NCCN` [Example 342, 3-(2-aminoethyl)-1-[2-methyl-5-[4-[4-(trifluoromethyl)phenyl]piperidine-1-carbonyl]phenyl]urea] it was 82.8%; in that of `CSCCNC(=O)Nc1cc(C(=O)N2CCC(c3ccc(C#N)cc3)CC2)ccc1C` [Example 156, 1-[5-[4-(4-cyanophenyl)piperidine-1-carbonyl]-2-methyl-phenyl]-3-(2-methylsulfanylethyl)urea], 92.2%; in that of `Cc1ccc(C(=O)N2CCC(c3ccc(C#N)cc3)CC2)cc1NC(=O)NCCNC(=O)c1ccccn1` [Example 91, N-[2-[[5-[4-(4-cyanophenyl)piperidine-1-carbonyl]-2-methyl-phenyl]carbamoylamino]ethyl]pyridine-2-carboxamide], 95.9%.
Same read-out and setting: in the case of `Cc1ccc(C(=O)N2CCC(c3ccc(C#N)cc3)CC2)cc1NC(=O)NCc1cc(C)n(C)n1` [Example 257, 1-[5-[4-(4-cyanophenyl)piperidine-1-carbonyl]-2-methyl-phenyl]-3-[(1,5-dimethylpyrazol-3-yl)methyl]urea] it was 86.2%; in that of `Cc1ccc(C(=O)N2CCC(c3ccc(C#N)cc3)CC2)cc1NC(=O)NCCCNS(C)(=O)=O` [Example 215, 1-[5-[4-(4-cyanophenyl)piperidine-1-carbonyl]-2-methyl-phenyl]-3-(3-methanesulfonamidopropyl)urea], 100%; in that of `Cc1ccc(NC(=O)NCc2ccccc2F)cc1C(=O)N1CCC(c2ccc(C#N)cc2)CC1` [Example 23, 1-[3-[4-(4-cyanophenyl)piperidine-1-carbonyl]-4-methyl-phenyl]-3-[(2-fluorophenyl)methyl]urea], 77%.
Same read-out and setting: to `Cc1ccc(C(=O)N2CCC(c3ccc(C#N)cc3)CC2)cc1NC(=O)NCc1ccc(F)c(F)c1` [Example 56, 1-[5-[4-(4-cyanophenyl)piperidine-1-carbonyl]-2-methyl-phenyl]-3-[(3,4-difluorophenyl)methyl]urea] belongs 105%; to `COc1ccc(NCCNC(=O)Nc2cc(C(=O)N3CCC(c4ccc(C#N)cc4)CC3)ccc2C)cc1` [Example 101, 1-[5-[4-(4-cyanophenyl)piperidine-1-carbonyl]-2-methyl-phenyl]-3-[2-[(4-methoxyphenyl)amino]ethyl]urea], 90.7%.
For the compound `Cc1ccc(C(=O)N2CCC(c3ccc(C#N)cc3)CC2)cc1NC(=O)NC1CCC1` [Example 287, 1-[5-[4-(4-cyanophenyl)piperidine-1-carbonyl]-2-methyl-phenyl]-3-cyclobutyl-urea], the inhibition at 100 µM was 92.4%.
On the same count and under the same terms, to `Cc1ccc(C(=O)N2CCC(c3ccc(C#N)cc3)CC2)cc1NC(=O)NCCCCCNC(=O)N1CCOCC1` [Example 173, N-[5-[[5-[4-(4-cyanophenyl)piperidine-1-carbonyl]-2-methyl-phenyl]carbamoylamino]pentyl]morpholine-4-carboxamide] belongs 95.5%.
Same read-out and setting: in the case of `CCc1ccc(C(=O)N2CCC(c3ccc(C#N)cc3)CC2)cc1NC(=O)NC1COC1` [Example 298, 1-[5-[4-(4-cyanophenyl)piperidine-1-carbonyl]-2-ethyl-phenyl]-3-(oxetan-3-yl)urea] it was 95.8%.
On the same count and under the same terms, to `Cc1ccc(NC(=O)N(C)Cc2ccccc2)cc1C(=O)N1CCC(c2ccc(C#N)cc2)CC1` [Example 24, 1-benzyl-3-[3-[4-(4-cyanophenyl)piperidine-1-carbonyl]-4-methyl-phenyl]-1-methyl-urea] belongs 78.1%.
Take `COc1ccccc1OCCNC(=O)Nc1cc(C(=O)N2CCC(c3ccc(C#N)cc3)CC2)ccc1C` [Example 83, 1-[5-[4-(4-cyanophenyl)piperidine-1-carbonyl]-2-methyl-phenyl]-3-[2-(2-methoxyphenoxy)ethyl]urea]: the inhibition at 100 µM was determined as 102%.
Same read-out and setting: in the case of `CCNC(=O)Nc1ccc(C)c(C(=O)N2CCC(c3ccc(C#N)cc3)CC2)c1` [Example 19, 3-[3-[4-(4-cyanophenyl)piperidine-1-carbonyl]-4-methyl-phenyl]-1-ethyl-urea] it was 79.9%; in that of `Cc1ccc(C(=O)N2CCC(c3ccc(C#N)cc3)CC2)cc1NC(=O)NCCCN1CCCC(C)C1` (stereo not drawn) [Example 100, 1-[5-[4-(4-cyanophenyl)piperidine-1-carbonyl]-2-methyl-phenyl]-3-[3-(3-methyl-1-piperidyl)propyl]urea], 77.8%; in that of `Cc1ccc(C(=O)N2CCC(c3ccc(C#N)cc3)CC2)cc1NC(=O)NCc1ncccc1C` [Example 250, 3-[5-[4-(4-cyanophenyl)piperidine-1-carbonyl]-2-methyl-phenyl]-1-[(3-methylpyridin-2-yl)methyl]urea], 104%.
Same read-out and setting: to `Cc1ccc(NC(=O)NCc2ccc(C#N)cc2)cc1C(=O)N1CCC(c2ccc(C#N)cc2)CC1` [Example 378, 3-[(4-cyanophenyl)methyl]-1-[3-[4-(4-cyanophenyl)piperidine-1-carbonyl]-4-methylphenyl]urea] belongs 73.2%; to `Cc1ccc(C(=O)N2CCC(c3ccc(C#N)cc3)CC2)cc1NC(=O)N(C)CC(=O)NC(C)C` [Example 398, 2-[[5-[4-(4-cyanophenyl)piperidine-1-carbonyl]-2-methylphenyl]carbamoyl-methylamino]-N-propan-2-ylacetamide], 66.3%; to `Cc1ccc(C(=O)N2CCC(c3ccc(C#N)cc3)CC2)cc1NC(=O)NCCc1c(C)noc1C` [Example 67, 1-[5-[4-(4-cyanophenyl)piperidine-1-carbonyl]-2-methyl-phenyl]-3-[2-(3,5-dimethyl-1,2-oxazol-4-yl)ethyl]urea], 96.9%.
The same measure, in the same setting: to `CC(C)NC(=O)Nc1cc(C(=O)N2CCC(c3ccc(C#N)cc3)CC2)ccc1OC(F)(F)F` [Example 4, 3-[5-[4-(4-cyanophenyl)piperidine-1-carbonyl]-2-(trifluoromethoxy)phenyl]-1-propan-2-yl-urea] belongs 86.1%.
